According to ChEMBL document CHEMBL1799962, “Indolin-2-one p38α inhibitors I: design, profiling and crystallographic binding mode” (Bioorg Med Chem Lett, 2011):
In brackets after ≈: the same amount, converted by molar mass.

Legend:
[1] = Oral bioavailability in rat at 10 mg/kg; format: ADME, organism-based; conditions: in vivo
[2] = Primary phase half life in rat at 1 mg/kg, iv; format: ADME, organism-based; design: dose 1 mg/kg, route intravenous; conditions: in vivo, read-out: alphat1/2
[3] = Cmax in rat at 1 mg/kg, iv; format: ADME, organism-based; design: dose 1 mg/kg, route intravenous; conditions: in vivo
[4] = Apparent permeability from apical to basolateral side in human Caco2 cells at 12.5 uM; format: ADME, cell-based; conditions: Caco-2
[5] = Apparent permeability from basolateral to apical side in human Caco2 cells at 12.5 uM; format: ADME, cell-based; conditions: Caco-2
[6] = Terminal half life in rat at 1 mg/kg, iv; format: ADME, organism-based; design: dose 1 mg/kg, route intravenous; conditions: in vivo, read-out: beta t1/2 (converted)
[7] = Volume of distribution at steady state in rat at 1 mg/kg, iv; format: ADME, organism-based; design: dose 1 mg/kg, route intravenous; conditions: in vivo, read-out: Vdss
[8] = AUC (0 to infinity) in rat at 1 mg/kg, iv; format: ADME, organism-based; design: time infinity, dose 1 mg/kg, route intravenous; conditions: plasma
[9] = Cmax in rat at 10 mg/kg, po; format: ADME, organism-based; design: dose 10 mg/kg, route oral; conditions: in vivo
[10] = Clearance in rat at 1 mg/kg, iv; format: ADME, organism-based; design: dose 1 mg/kg, route intravenous; conditions: in vivo
[11] = Thermodynamic solubility of the compound in aqueous buffer at pH 7.4 at 37 degC by HPLC-UV analysis; format: physicochemical; conditions: read-out: Therm_solubility

bioavailability [1]: 10%
half-life [2]: < 1 h
Cmax [3]: 2000 ng/mL
Papp A→B at 12.5 µM [4]: 18 ×10⁻⁶ cm/s
Papp B→A at 12.5 µM [5]: 10 ×10⁻⁶ cm/s
half-life [6]: 5.3 h
Vd [7]: 0.8 L/kg
AUC(0-inf) [8]: 2530 ng·h/mL
Cmax [9]: 367 ng/mL
clearance [10]: 6.6 mL/min/kg
solubility thermodynamic [11]: 3 µg/mL (≈ 8.32 µM)
Structure (SMILES): Cc1ccc(C(=O)NC2CC2)cc1-c1ccc2c(c1)NC(=O)C21CCCC1
